Measured values: ChEMBL document CHEMBL5724914, “Linking interpersonal differences in gut microbiota composition and drug biotransformation activity” (2024)

Experiments:
[1] = (§1) The drug is tested on Z-021 corresponding to metagenome with ENA study accession number: PRJEB37062 and ENA sample accession number: ERS12561820 for biotransformation under anaerobic condition. The drug concentrations were measured over 9 timepoints collected between 0 and 24 hours of incubation by liquid-chromatography-coupled mass spectrometry (LC–MS); conditions: 2 µM
[2] = (§2) The drug is tested on Z-025 corresponding to rabbit gut metagenome with ENA study accession number: PRJEB37062 and ENA sample accession number: ERS12561824 for biotransformation under anaerobic condition. The drug concentrations were measured over 9 timepoints collected between 0 and 24 hours of incubation by liquid-chromatography-coupled mass spectrometry (LC–MS); conditions: 2 µM
[3] = human gut metagenome, 24 h, 2 µM
[4] = as §2, with “WLS-038” for “Z-025”, “human” for “rabbit”, “ERS12561745” for “ERS12561824”; conditions: 2 µM
[5] = human gut metagenome, 24 h, 2 µM; remark: listed apart in the source
[6] = as §2, with “WLS-006” for “Z-025”, “human” for “rabbit”, “ERS12561741” for “ERS12561824”; conditions: 2 µM
[7] = as §1, with “Z-026” for “Z-021”, “ERS12561825” for “ERS12561820”; conditions: 2 µM
[8] = as §2, with “WLS-370” for “Z-025”, “human” for “rabbit”, “ERS12561793” for “ERS12561824”; conditions: 2 µM
[9] = human gut metagenome, 24 h, 2 µM; remark: listed apart in the source
[10] = as §2, with “Z-001” for “Z-025”, “mouse” for “rabbit”, “ERS12561801” for “ERS12561824”; conditions: 2 µM
[11] = human gut metagenome, 24 h, 2 µM; remark: listed apart in the source
[12] = human gut metagenome, 24 h, 2 µM; remark: listed apart in the source
[13] = human gut metagenome, 24 h, 2 µM; remark: listed apart in the source
[14] = as §2, with “WLS-027” for “Z-025”, “human” for “rabbit”, “ERS12561744” for “ERS12561824”; conditions: 2 µM
[15] = human gut metagenome, 24 h, 2 µM; remark: listed apart in the source
[16] = human gut metagenome, 24 h, 2 µM; remark: listed apart in the source
[17] = as §2, with “WLS-010” for “Z-025”, “human” for “rabbit”, “ERS12561743” for “ERS12561824”; conditions: 2 µM
[18] = human gut metagenome, 24 h, 2 µM; remark: listed apart in the source
[19] = human gut metagenome, 24 h, 2 µM; remark: listed apart in the source
[20] = as §2, with “Z-006” for “Z-025”, “mouse” for “rabbit”, “ERS12561806” for “ERS12561824”; conditions: 2 µM
Further: call rule not given here.

Row | SMILES | Bacterial Biotransformation [1] | Bacterial Biotransformation [2] | Bacterial Biotransformation [3] | Bacterial Biotransformation [4] | Bacterial Biotransformation [5] | Bacterial Biotransformation [6] | Bacterial Biotransformation [7] | Bacterial Biotransformation [8] | Bacterial Biotransformation [9] | Bacterial Biotransformation [10] | Bacterial Biotransformation [11] | Bacterial Biotransformation [12] | Bacterial Biotransformation [13] | Bacterial Biotransformation [14] | Bacterial Biotransformation [15] | Bacterial Biotransformation [16] | Bacterial Biotransformation [17] | Bacterial Biotransformation [18] | Bacterial Biotransformation [19] | Bacterial Biotransformation [20]
1 | CN1C(=O)CCS(=O)(=O)C1c1ccc(Cl)cc1 (stereo not given) [CHLORMEZANONE] | Compound NOT metabolized | Compound NOT metabolized | Compound NOT metabolized | Compound NOT metabolized | Compound NOT metabolized | Compound metabolized | Compound NOT metabolized | Compound NOT metabolized | Compound NOT metabolized | Compound NOT metabolized | Compound NOT metabolized | Compound NOT metabolized | Compound NOT metabolized | Compound NOT metabolized | Compound NOT metabolized | Compound NOT metabolized | Compound NOT metabolized | Compound NOT metabolized | Compound NOT metabolized | Compound NOT metabolized
2 | CN1CCN(C2=Nc3cc(Cl)ccc3Nc3ccccc32)CC1 [CLOZAPINE] | Compound NOT metabolized | Compound NOT metabolized | Compound metabolized | Compound NOT metabolized | Compound NOT metabolized | Compound NOT metabolized | Compound NOT metabolized | Compound metabolized | Compound NOT metabolized | Compound NOT metabolized | Compound metabolized | Compound NOT metabolized | Compound metabolized | Compound metabolized | Compound metabolized | Compound NOT metabolized | Compound NOT metabolized | Compound metabolized | Compound metabolized | Compound NOT metabolized
3 | COc1cc2c(c(OC)c1OC)-c1ccc(OC)c(=O)cc1[C@@H](NC(C)=O)CC2 [COLCHICINE] | Compound NOT metabolized | Compound NOT metabolized | Compound metabolized | Compound NOT metabolized | Compound NOT metabolized | Compound metabolized | Compound NOT metabolized | Compound NOT metabolized | Compound metabolized | Compound NOT metabolized | Compound metabolized | Compound NOT metabolized | Compound metabolized | Compound NOT metabolized | Compound metabolized | Compound metabolized | Compound metabolized | Compound NOT metabolized | Compound metabolized | Compound NOT metabolized

Second part, the molecule after the results:

Row | Bacterial Biotransformation [1] | Bacterial Biotransformation [2] | Bacterial Biotransformation [3] | Bacterial Biotransformation [4] | Bacterial Biotransformation [5] | Bacterial Biotransformation [6] | Bacterial Biotransformation [7] | Bacterial Biotransformation [8] | Bacterial Biotransformation [9] | Bacterial Biotransformation [10] | Bacterial Biotransformation [11] | Bacterial Biotransformation [12] | Bacterial Biotransformation [13] | Bacterial Biotransformation [14] | Bacterial Biotransformation [15] | Bacterial Biotransformation [16] | Bacterial Biotransformation [17] | Bacterial Biotransformation [18] | Bacterial Biotransformation [19] | Bacterial Biotransformation [20] | SMILES
4 | Compound metabolized | Compound metabolized | Compound metabolized | Compound NOT metabolized | Compound NOT metabolized | Compound metabolized | Compound NOT metabolized | Compound NOT metabolized | Compound NOT metabolized | Compound metabolized | Compound NOT metabolized | Compound NOT metabolized | Compound metabolized | Compound NOT metabolized | Compound NOT metabolized | Compound metabolized | Compound NOT metabolized | Compound NOT metabolized | Compound NOT metabolized | Compound NOT metabolized | CC(C)NCC(O)COc1ccc(COCCOC(C)C)cc1.CC(C)NCC(O)COc1ccc(COCCOC(C)C)cc1.O=C(O)/C=C/C(=O)O (stereo not given) [BISOPROLOL FUMARATE]
5 | Compound metabolized | Compound metabolized | Compound metabolized | Compound metabolized | Compound metabolized | Compound metabolized | Compound NOT metabolized | Compound metabolized | Compound metabolized | Compound metabolized | Compound metabolized | Compound NOT metabolized | Compound metabolized | Compound metabolized | Compound metabolized | Compound metabolized | Compound metabolized | Compound metabolized | Compound metabolized | Compound NOT metabolized | CCCCCOC(=O)Nc1nc(=O)n([C@@H]2O[C@H](C)[C@@H](O)[C@H]2O)cc1F [CAPECITABINE]
6 | Compound NOT metabolized | Compound NOT metabolized | Compound NOT metabolized | Compound metabolized | Compound NOT metabolized | Compound metabolized | Compound NOT metabolized | Compound metabolized | Compound metabolized | Compound NOT metabolized | Compound metabolized | Compound NOT metabolized | Compound metabolized | Compound metabolized | Compound metabolized | Compound NOT metabolized | Compound metabolized | Compound metabolized | Compound metabolized | Compound NOT metabolized | Cc1ccc(-c2cc(C(F)(F)F)nn2-c2ccc(S(N)(=O)=O)cc2)cc1 [CELECOXIB]
7 | Compound metabolized | Compound metabolized | Compound NOT metabolized | Compound metabolized | Compound metabolized | Compound metabolized | Compound NOT metabolized | Compound metabolized | Compound NOT metabolized | Compound metabolized | Compound NOT metabolized | Compound metabolized | Compound metabolized | Compound metabolized | Compound NOT metabolized | Compound NOT metabolized | Compound NOT metabolized | Compound metabolized | Compound metabolized | Compound NOT metabolized | Clc1ccc(Cn2c(CN3CCCC3)nc3ccccc32)cc1 [CLEMIZOLE]
8 | Compound metabolized | Compound metabolized | Compound metabolized | Compound metabolized | Compound metabolized | Compound metabolized | Compound metabolized | Compound metabolized | Compound metabolized | Compound metabolized | Compound metabolized | Compound metabolized | Compound metabolized | Compound metabolized | Compound metabolized | Compound metabolized | Compound metabolized | Compound metabolized | Compound metabolized | Compound metabolized | CC(=O)OCC(=O)[C@@]12N=C(C)O[C@@H]1C[C@H]1[C@@H]3CCC4=CC(=O)C=C[C@]4(C)[C@H]3[C@@H](O)C[C@@]12C [DEFLAZACORT]
